This is an account of results in patent US20260041649A1, “ANTI-INFLAMMATORY AGENT” (WATANABE OYSTER LABORATORY, CO., LTD., priority 2023, published 2026).

Assay [1] deals with mouse macrophage RAW264.7 cells. Description: Cell death of subconfluent RAW264.7 cells (cell count). The class given is cell-based. The settings on record: for death in RAW264.7 cells: DHMBA 1, 10, 100 or 1000 μM, subconfluent cells. On the procedure:
FIG. 4 is an explanatory diagram describing that the marine factor 3,5-dihydroxy-4-methoxy benzyl alcohol (DHMBA) stimulates cell death in mouse macrophage RAW264.7 cells. RAW264.7 cells (1×10^5 cells/ml/well in a 24-well plate) were cultured in DMEM containing 10% FBS, 1% P/S, and 1% fungizone for 3 days until they reached subconfluence. The cells were cultured for another 24 hours (FIG. 4A) or 48 hours (FIG. 4B) in the control group (1% ethanol; 0 μM DHMBA as final concentration) and in the DHMBA-treated group (0.1, 1, 10, 100, or 1000 μM). In FIG. 4C, subconfluent RAW264.7 cells were cultured for another 48 hours with a caspase-3 inhibitor (10 μM) in the control group (1% ethanol; 0 μM DHMBA as final concentration) and the DHMBA-treated group (1 or 10 μM). After the culture, the number of cells attached to the dish was counted. Data are presented as the mean±SD from a total of 8 wells in 2 plates using different cell preparations. In FIG. 4D, to measure the expression level of caspase-3 or cleaved caspase-3, […] (1×10^6 cells/10 ml medium in a 100 mm dish) were cultured for 3 days in a DMEM culture medium in the control group (1% ethanol; 0 μM DHMBA as final concentration) and the DHMBA-treated group (10 μM). After the culture, cell lysates were obtained for Western blotting assay. In FIG. 4E, band intensities are shown as fold increase over the control. Data are presented as the mean±SD of values obtained from 4 dishes using different cell preparations. *: Significant difference (p<0.001) between the control group and the DHMBA-treated group. Statistical analysis was performed using 1-way ANOVA with Tukey-Kramer post-test.
RAW264.7 cells (1×10^5/ml/well in a 24-well plate) were cultured for 3 days in a DMEM culture medium containing 10% FBS, 1% P/S, and 1% fungizone using a 24-well plate. […]
(§1) The number of viable cells was counted under a microscope (Olympus MTV-3) using a hemocytometer (Sigma-Aldrich) and a cell counter (H-102P, Line Seiki Co., Ltd., Tokyo, Japan).

Assay [2] concerns RAW264.7 cells cultured with LPS. In words: Cell death of RAW264.7 cells cultured with LPS. The class given is cell-based, mouse. The following applies: DHMBA 1 or 10 μM, LPS 100 ng/ml, 48 hours, subconfluent cells. The protocol: In FIG. 5A, to examine the effect on cell proliferation, RAW264.7 cells (1×10^5/ml/well) were cultured for 3 days in a DMEM culture medium containing 10% FBS, 1% P/S, and 1% fungizone in the control group (1% ethanol as final concentration) with or without LPS (1, 10, 50, 100, 500 ng/ml). In FIG. 5B, cells (1×10^5/ml per well) were cultured for 3 days in a DMEM culture medium containing 10% FBS, 1% P/S, and 1% fungizone in the DHMBA-treated group (1 or 10 μM) with or without LPS (100 ng/ml). In FIG. 5C, to examine the effect on cell death, cells that had reached subconfluence after 3 days of culture were cultured for another 48 hours in the control group (1% ethanol) with or without LPS (1, 10, 50, 100, or 500 ng/ml). […] After the culture, the number of cells attached to the dish was counted. […]
In an additional experiment, to determine the effect of DHMBA on RAW264.7 cell death, RAW264.7 cells were cultured in the presence of LPS. […] After the culture, the cells were detached with a Ca^2+/Mg^2+ free PBS solution with 0.05% trypsin/EDTA (0.1 ml per well) as described in the “Cell proliferation assay” section, and the cells were counted as described in the “Cell count” section below. […]
as §1

SMILES strings stand for the structures.

Take `COc1c(O)cc(CO)cc1O` [DHMBA, 3,5-dihydroxy-4-methoxybenzyl alcohol]: the “death in RAW264.7 cells” value in assay [1] (24 hours) and in assay [1] (48 hours) was “promoted” throughout. Further, the “stimulatory effect on death of RAW264.7 cells in presence of caspase-3 inhibitor” value in assay [1] (DHMBA 1 or 10 μM, caspase-3 inhibitor 10 μM, 48 hours) is “blocked”. Also, the “effect on RAW264.7 cell death in the presence of LPS” value in assay [2] is “exhibited”.
